For experiment [1], the target named is Serine/threonine-protein kinase 25 (Homo sapiens, UniProt O00506).
In experiment [2] the target is Serine/threonine-protein kinase B-raf (Homo sapiens, UniProt P15056, V600E).
The next experiment has as its target Angiopoietin-1 receptor (Homo sapiens, UniProt Q02763).
The target of experiment [3] is Serine/threonine-protein kinase PAK 5 (Homo sapiens, UniProt Q9P286).
The next experiment addresses Activin receptor type-2B (Homo sapiens, UniProt Q13705).
In experiment [4] the target is Mitogen-activated protein kinase 4 (Homo sapiens, UniProt P31152).
Experiment [5] concerns the target Phosphatidylinositol 4,5-bisphosphate 3-kinase catalytic subunit alpha isoform (Homo sapiens, UniProt P42336).
For experiment [6], the target named is Insulin-like growth factor 1 receptor (Homo sapiens, UniProt P08069).
Experiment [7] addresses T1, Atypical kinase COQ8B, mitochondrial (Homo sapiens, UniProt Q96D53).
T1 sequence (Q96D53 whole entry): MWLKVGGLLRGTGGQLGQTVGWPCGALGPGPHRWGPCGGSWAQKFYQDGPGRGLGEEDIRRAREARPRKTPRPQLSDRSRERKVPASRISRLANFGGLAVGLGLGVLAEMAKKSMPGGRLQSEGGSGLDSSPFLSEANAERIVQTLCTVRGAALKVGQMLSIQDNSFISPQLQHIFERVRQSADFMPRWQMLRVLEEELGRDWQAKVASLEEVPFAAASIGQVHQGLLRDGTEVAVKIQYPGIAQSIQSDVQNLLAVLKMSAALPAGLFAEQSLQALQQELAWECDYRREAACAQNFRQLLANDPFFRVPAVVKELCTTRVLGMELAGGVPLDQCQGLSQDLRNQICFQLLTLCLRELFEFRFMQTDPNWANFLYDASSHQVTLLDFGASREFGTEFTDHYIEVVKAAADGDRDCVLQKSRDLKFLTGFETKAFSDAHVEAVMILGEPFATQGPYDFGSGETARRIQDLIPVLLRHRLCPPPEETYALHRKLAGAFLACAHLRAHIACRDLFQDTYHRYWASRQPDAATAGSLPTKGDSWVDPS

In experiment [8] the target is T2, Serine/threonine-protein kinase D1 (Homo sapiens, UniProt Q15139).
T2 sequence (Q15139 whole entry): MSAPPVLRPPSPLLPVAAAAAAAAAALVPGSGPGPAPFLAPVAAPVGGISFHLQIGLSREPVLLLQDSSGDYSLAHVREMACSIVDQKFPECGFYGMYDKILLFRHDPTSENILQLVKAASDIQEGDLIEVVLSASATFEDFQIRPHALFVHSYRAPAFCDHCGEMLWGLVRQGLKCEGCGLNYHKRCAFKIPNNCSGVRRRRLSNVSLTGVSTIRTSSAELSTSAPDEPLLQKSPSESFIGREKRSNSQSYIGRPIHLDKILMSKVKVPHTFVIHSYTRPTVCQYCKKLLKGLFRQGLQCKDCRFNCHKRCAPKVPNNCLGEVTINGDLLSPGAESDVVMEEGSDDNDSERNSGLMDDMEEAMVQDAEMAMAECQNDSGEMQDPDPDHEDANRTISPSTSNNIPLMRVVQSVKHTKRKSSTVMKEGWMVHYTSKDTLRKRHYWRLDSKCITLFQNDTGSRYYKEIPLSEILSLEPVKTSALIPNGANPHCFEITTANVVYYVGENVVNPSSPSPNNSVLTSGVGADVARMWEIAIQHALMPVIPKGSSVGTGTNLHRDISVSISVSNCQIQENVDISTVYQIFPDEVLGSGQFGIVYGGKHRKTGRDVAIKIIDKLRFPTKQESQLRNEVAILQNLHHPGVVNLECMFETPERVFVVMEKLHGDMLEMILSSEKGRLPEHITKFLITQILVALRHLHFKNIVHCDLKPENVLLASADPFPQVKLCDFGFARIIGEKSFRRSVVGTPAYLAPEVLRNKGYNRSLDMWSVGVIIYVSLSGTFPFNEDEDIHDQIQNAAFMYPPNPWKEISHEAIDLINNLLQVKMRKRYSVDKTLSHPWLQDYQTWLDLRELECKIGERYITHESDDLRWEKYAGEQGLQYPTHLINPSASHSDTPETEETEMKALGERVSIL

For experiment [9], the target named is Ribosomal protein S6 kinase alpha-6 (Homo sapiens, UniProt Q9UK32).
Experiment [10] has as its target T3, Interleukin-1 receptor-associated kinase 3 (Homo sapiens, UniProt Q9Y616).
T3 sequence (Q9Y616 whole entry): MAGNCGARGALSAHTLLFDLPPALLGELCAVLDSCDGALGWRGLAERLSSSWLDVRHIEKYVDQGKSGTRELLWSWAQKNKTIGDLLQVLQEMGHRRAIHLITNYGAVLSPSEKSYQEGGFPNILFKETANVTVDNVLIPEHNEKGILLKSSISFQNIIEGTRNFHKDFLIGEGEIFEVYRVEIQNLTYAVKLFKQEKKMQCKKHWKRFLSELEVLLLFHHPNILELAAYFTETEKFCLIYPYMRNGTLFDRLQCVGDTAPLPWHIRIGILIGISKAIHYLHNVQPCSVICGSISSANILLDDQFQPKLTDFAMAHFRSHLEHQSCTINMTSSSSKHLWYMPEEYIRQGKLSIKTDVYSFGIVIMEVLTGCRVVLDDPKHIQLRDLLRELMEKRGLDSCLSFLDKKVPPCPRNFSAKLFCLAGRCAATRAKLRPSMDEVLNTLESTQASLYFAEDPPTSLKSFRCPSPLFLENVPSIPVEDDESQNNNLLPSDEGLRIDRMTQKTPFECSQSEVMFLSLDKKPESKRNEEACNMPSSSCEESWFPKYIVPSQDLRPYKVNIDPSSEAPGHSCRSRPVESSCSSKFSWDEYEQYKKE

For experiment [11], the target named is Receptor-type tyrosine-protein kinase FLT3 (Homo sapiens, UniProt P36888, ITD).
Experiment [12] addresses Tyrosine-protein kinase HCK (Homo sapiens, UniProt P08631).
Experiment [13] concerns the target Fibroblast growth factor receptor 4 (Homo sapiens, UniProt P22455).
Experiment [14] deals with Mitogen-activated protein kinase 11 (Homo sapiens, UniProt Q15759).
Experiment [15] has as its target RAF proto-oncogene serine/threonine-protein kinase (Homo sapiens, UniProt P04049).

SMILES strings stand for the structures. pKd: −log10 of the molar value.

One may read the pKd as the negative decadic logarithm of the Kd, by convention in mol/L. Consider `Oc1ccc(-c2nc(-c3ccncc3)c(-c3ccc(F)cc3)[nH]2)cc1` [SB-202190], for which the pKd in experiment [1] is under 5.00; in [2] it was 6.21; at Angiopoietin-1 receptor it was under 5.00; in [3] it was under 5.00; at Activin receptor type-2B, 5.32; in experiment [4], under 5.00. Moreover, the negative logarithm of the Kd (pKd) was under 5.00 in [5]; under 5.00 in experiment [6]; 5.31 in experiment [7]; under 5.00 in experiment [8]; 6.57 in [9]; under 5.00 in [10]. In addition, the pKd in experiment [11], in experiment [12] and in experiment [13] was under 5.00 each time.

Turning to `COCC(=O)NC/C=C/c1ccc2ncnc(Nc3ccc(Oc4ccc(C)nc4)c(C)c3)c2c1` [CP-724714], the pKd (in [1]; at Angiopoietin-1 receptor; in experiment [3]; at Activin receptor type-2B; in [4]; in experiment [6]) was under 5.00 in each case. In addition, the pKd in experiment [7], in experiment [8], in experiment [9], in experiment [10], in [14] and in [15] was under 5.00 in each case. For the same compound, the pKd in experiment [11], in experiment [12] and in experiment [13] was under 5.00 throughout.

`Nc1nc(Nc2ccc(S(N)(=O)=O)cc2)nn1C(=O)c1c(F)cccc1F` [JNJ-7706621]: the pKd in [1] was 6.44; in experiment [2], under 5.00; on Activin receptor type-2B it was 5.23; in experiment [4] it was 5.80; in experiment [5], under 5.00; in [7], under 5.00. Also, the negative-log Kd (pKd) in [10] was 5.47; in experiment [14], under 5.00; in experiment [15], under 5.00; in experiment [13], under 5.00.

As for `NC(=O)c1ccc(-c2nc(-c3ccc4c(c3)OCO4)c(-c3ccccn3)[nH]2)cc1` [SB-431542], the negative-log Kd (pKd) (in experiment [1]; on Angiopoietin-1 receptor; in [3]; on Activin receptor type-2B; in experiment [4]; in experiment [5]) was under 5.00 throughout. Further, the pKd in experiment [6], in [7], in experiment [10], in [14], in experiment [15] and in [12] was under 5.00 throughout. Further, the pKd in [13] was under 5.00.

Turning to `CCOc1cc2ncc(C#N)c(Nc3ccc(F)c(Cl)c3)c2cc1NC(=O)/C=C/CN(C)C` [PELITINIB], the pKd (in [2]; on Angiopoietin-1 receptor; in experiment [3]; at Activin receptor type-2B; in experiment [4]; in experiment [5]) was under 5.00 throughout. For the same compound, the negative-log Kd (pKd) in experiment [6] is under 5.00; in [7], 5.21; in [8], under 5.00; in experiment [9], under 5.00; in experiment [10], under 5.00; in [14] it was under 5.00. Moreover, the pKd in experiment [15], in experiment [11] and in [13] was under 5.00 each time.
